Source: patent US20070167408A1, “NOVEL ALKYL PHOSPHOLIPID DERIVATIVES WITH REDUCED CYTOTOXICITY AND USES THEREOF” (ZENTARIS GmbH, priority 2005, published 2007)
Values after ≈ are worked out from the molar mass of the structure shown. Like-named read-outs stand apart in the source and are kept apart here.

Legend:
[1] = test system: Aspergillus fumigatus ATCC 204305; assay: Anti-fungal broth microdilution (MIC), fungus A; type: cell-based; settings: Aspergillus fumigatus, ATCC204305; filamentous protocol, more than 50% growth inhibition, 48 to 72 h
Experimental: (§1) Anti-fungal activity of selected compounds of the invention was assessed by means of anti-fungal susceptibility tests as follows.
(§2) The antifungal activities of the compounds of the invention against different fungi were measured according to standard broth microdilution methods of the US National Committee for Clinical Laboratory standards (NCCLS) for yeasts (NCCLS document M27-A, 1997) and filamentous fungi (NCCLS document M38-A, 2002).
(§3) Stock solutions of compounds of the invention were freshly prepared on the days of experiments equal to 1.28 mg/10 ml media. Serial dilutions were performed to achieve the following testing concentrations: 64 μg/ml, 32 μg/ml, 16 μg/ml, 8 μg/ml, 4 μg/ml, 2 μg/ml, 1 μg/ml, 0.5 μg/ml, 0.25 μg/ml and 0.125 μg/ml.
(§4) An inoculum of 10^6 CFU/ml of the fungi strain was prepared in the appropriate medium and transferred to test tubes for incubation.
(§5) The method is used to determine the minimum inhibitory concentrations (MIC) of drugs on fungi strains. […] For the filamentous fungi protocol, MIC determination took place after 48 to 72 h of culture at 35° C. and was defined at that concentration which produced more than 50% visible growth inhibition.

[2] = test system: Candida parapsilosis ATCC 22019; assay: Anti-fungal broth microdilution (MIC), fungus G; type: cell-based; settings: yeast protocol, more than 80% inhibition, 48 h
Experimental: as §1, §2, §3, §4, §5

[3] = test system: Cryptococcus gattii ATCC 32608; assay: Anti-fungal broth microdilution (MIC), fungus J; type: cell-based; settings: yeast protocol, more than 80% inhibition, 48 h
Experimental: as §1, §2, §3, §4, §5

[4] = test system: Cryptococcus neoformans H99; assay: Anti-fungal broth microdilution (MIC), fungus I; type: cell-based; settings: yeast protocol, more than 80% inhibition, 48 h
Experimental: as §1, §2, §3, §4, §5

Candida albicans TS3 = assay: Anti-fungal broth microdilution (MIC), fungus F; type: cell-based; settings: yeast protocol, more than 80% inhibition, 48 h
Experimental: as §1, §2, §3, §4, §5

[5] = test system: Cryptococcus neoformans ATCC 90112; assay: Anti-fungal broth microdilution (MIC), fungus H; type: cell-based; settings: yeast protocol, more than 80% inhibition, 48 h
Experimental: as §1, §2, §3, §4, §5

[6] = test system: Aspergillus fumigatus 040-200167; assay: Anti-fungal broth microdilution (MIC), fungus C; type: cell-based; settings: Aspergillus fumigatus, 040200167; filamentous protocol, more than 50% growth inhibition, 48 to 72 h
Experimental: as §1, §2, §3, §4, §5

[7] = test system: Candida albicans ATCC 90028; assay: Anti-fungal broth microdilution (MIC), fungus E; type: cell-based; settings: yeast protocol, more than 80% inhibition, 48 h
Experimental: as §1, §2, §3, §4, §5

[8] = test system: Aspergillus fumigatus 322-384; assay: Anti-fungal broth microdilution (MIC), fungus B; type: cell-based; settings: Aspergillus fumigatus, 322384; filamentous protocol, more than 50% growth inhibition, 48 to 72 h
Experimental: as §1, §2, §3, §4, §5

[9] = test system: Candida albicans ATCC 10231; assay: Anti-fungal broth microdilution (MIC), fungus D; type: cell-based; settings: yeast protocol, more than 80% inhibition, 48 h
Experimental: as §1, §2, §3, §4, §5

[10] = test system: PC3 (human prostate carcinoma) cells; assay: XTT cytotoxicity assay, PC3 cells; type: cell-based; settings: for PC3 % INH [31.6 μM] / inhibition at 31.6 µM: second set of experiments; for IC50: XTT, 48 h exposure, read-out: PC3 [IC50 (μM)]; for inhibition at 31.6 µM: read-out: PC3 % INH [31.6 μM]
Experimental: (§6) Cytotoxicity of selected compounds of the invention against different mammalian cell lines was assessed as follows.
(§7) Human tumor cell lines KB/HeLa (ATCC CCL17, human cervix carcinoma), PC3 (ATCC CRL1435, human prostate carcinoma) and RKOp21 (human colon adenocarcinoma; Schmidt et al., Oncogene 2000, 19: 2423-2429) cells were used in an automated XTT screening assay for the assessment of cytotoxicity.
(§8) The XTT assay quantifies cellular metabolic activity which correlates with cell viability and cell number. Test compounds (selected compounds of the invention and known substances as controls) are dissolved in culture medium at 600 μM and added to the tumor cells in 10 different concentrations in a semi-logarithmic fashion starting from 100 μM as highest concentration.
(§9) In a second set of experiments employing PC3, RKOp21 and SKOV-3 (ATCC HTB-77, human ovary adenocarcinoma) cells, test and reference compounds were dissolved in 70% Ethanol/30% H2O in a stock concentration of 10 mM and diluted in cell culture medium to yield either 31.6 μM (PC3 and RKOp21) or 100 μM (SKOV-3) final concentration.
(§10) 48 h later cellular metabolic activity of cells treated with test compounds is quantified by measurement of the absorbance at 490 nm (conversion of XTT dye) in comparison to untreated control cells (100% viability).
(§11) KB/HeLa and PC3 cells were cultivated in RPMI 1640 medium (Gibco, Cat. No. 42401-018) supplemented with 10% heat inactivated fetal calf serum (FCS, Biochrom AG, Cat. No. S0115), 2 mM L-glutamine (Gibco, Cat. No. 25030-24) and 2% Penicillin-Streptomycin (PenStrep, Gibco, Cat. No. 15140-122). RKOp21 cells were grown in DMEM+GlutaMAXTM-I medium (Gibco, Cat. No. 61965-026) supplemented with 10% heat inactivated fetal calf serum (FCS, Biochrom AG, Cat. No. S0115), 2 mM L-glutamine (Gibco, Cat. No. 25030-24), 2% Penicillin-Streptomycin (PenStrep, Gibco, Cat. No. 15140-122) and 1% 1M HEPES (Gibco, Cat. No. 15630-056). All cells were cultured at 37° C. in 5% CO2 humidified air.
(§12) On the first day of the experiment cells were harvested from exponential phase cultures by trypsination, counted and plated into 96 well flat-bottom micro titer plates depending on the cell line as listed below:
(§13) After a 24 h recovery to allow the cells to resume exponential growth, the test compounds were diluted immediately prior to use and transferred in 25 μl volume to the wells.
(§14) Following 2 days of continuous drug exposure 50 μl of freshly prepared XTT-PMS solution {2% 0.386 mg/ml PMS (N-Methyl Dibenzopyrazine Methylsulphate; Sigma, Cat. No. P9625) in PBS+98% 1 mg/ml XTT (Sodium 2,3-bis(2-methoxy-4-nitro-5-sulfophenyl)-5-[(phenylamino)carbonyl]-2H-Tetrazolium; Serva, Cat. No. 38450) in RPMI 1640 medium without phenol red} was added to the wells. To measure the proportion of living cells, the cells were incubated for 3 h with XTT-PMS reagent at 37° C., 5% CO2, humidified atmosphere allowing to form the formazan salt. The amount of soluble formazan salt produced by cellular reduction of XTT is quantified by measuring the absorbance at 490 nm using the Biomek® 2000 ELISA plate reader. %-inhibition (cytotoxicity) of each test compound was calculated in relation to untreated control cells. Inhibition curves were generated and IC50 values calculated by using GraphPad Prism.

[11] = test system: RKOp21 (human colon adenocarcinoma) cells; assay: XTT cytotoxicity assay, RKOp21 cells; type: cell-based; settings: for RKOp21 % INH [31.6 μM] / inhibition at 31.6 µM: second set of experiments; for IC50: XTT, 48 h exposure, read-out: RKOp21 [IC50 (μM)]; for inhibition at 31.6 µM: read-out: RKOp21 % INH [31.6 μM]
Experimental: as §6, §7, §8, §9, §10, §11, §12, §13, §14

[12] = test system: PC3, RKOp21 and SKOV-3 cell lines; assay: XTT cytotoxicity assay, mean over all three cell lines; type: cell-based, human; settings: mean value over all three cell lines
Experimental: Following 2 days of continuous drug exposure 50 μl of freshly prepared XTT-PMS solution {2% 0.386 mg/ml PMS (N-Methyl Dibenzopyrazine Methylsulphate; Sigma, Cat. No. […] Serva, Cat. No. 38450) in RPMI 1640 medium without phenol red} was added to the wells. To measure the proportion of living cells, the cells were incubated for 3 h with XTT-PMS reagent at 37° C., 5% CO2, humidified atmosphere allowing to form the formazan salt. […] Inhibition curves were generated and IC50 values calculated by using GraphPad Prism. In the following table 7 cytotoxicity results (% inhibition of cell growth) obtained in the second set of experiments for selected compounds of the invention are presented in comparison to examples of the prior art (perifosine, miltefosine). The results presented are individual values for the respective cell line as well as the mean value over all three cell lines tested.

[13] = test system: KB/HeLa (human cervix carcinoma) cells; assay: XTT cytotoxicity assay, KB/HeLa cells; type: cell-based; settings: XTT, 48 h exposure, read-out: KB/HELA [IC50 (μM)]
Experimental: as §6, §7, §8, §10, §11, §12, §13, §14

[14] = test system: SKOV-3 (human ovary adenocarcinoma) cells; assay: XTT cytotoxicity assay, SKOV-3 cells; type: cell-based; settings: for SKOV-3 % INH [100 μM]: second set of experiments; for inhibition at 100 µM: Homo sapiens, SK-OV-3, second set of experiments, read-out: SKOV-3 % INH [100 μM]
Experimental: On the first day of the experiment cells were harvested from exponential phase cultures by trypsination, counted and plated into 96 well flat-bottom micro titer plates depending on the cell line as listed below: [table] After a 24 h recovery to allow the cells to resume exponential growth, the test compounds were diluted immediately prior to use and transferred in 25 μl volume to the wells. Following 2 days of continuous drug exposure 50 μl of freshly prepared XTT-PMS solution {2% 0.386 mg/ml PMS (N-Methyl Dibenzopyrazine Methylsulphate; Sigma, Cat. No. […] Serva, Cat. No. 38450) in RPMI 1640 medium without phenol red} was added to the wells. To measure the proportion of living cells, the cells were incubated for 3 h with XTT-PMS reagent at 37° C., 5% CO2, humidified atmosphere allowing to form the formazan salt. […] Inhibition curves were generated and IC50 values calculated by using GraphPad Prism.

[15] = test system: Moraxella catarrhalis DMS 11994 (ATCC 43617); assay: Anti-bacterial bouillon microdilution assay (MIC), bacterium D; type: cell-based; settings: ATCC43617, 24 h
Experimental: Selected compounds of the invention were tested in a bouillon microdilution assay method according to the DIN 58940 (www.din.de) guidelines for determination of susceptibility of bacterial strains with regard to cell growth inhibition. The assay method quantifies bacterial cell growth which corresponds to the turbidity of the liquid culture medium by photometric measurement carried out at 595 nm.
The method of MIC determination was performed according to DIN 58940-5. The volumina were adapted according to the microdilution method as described in DIN 58940-7 guideline.
Dependent on water solubility, compounds of the invention were dissolved either in water or ethanol in a concentration of 10 mg/ml. Subsequently, the stock was further diluted in water to a concentration of 512 μg/ml. The following serial dilutions (factor 2) were performed in water resulting in the following […] testing concentrations: 256 μg/ml, 128 μg/ml, 64 μg/ml, 32 μg/ml, 16 μg/ml, 8 μg/ml, 4 μg/ml, 2 μg/ml, 1 μg/ml, 0.5 μg/ml, 0.25 μg/ml and 0.125 μg/ml. Diluted compounds of the invention were transferred in 100 μl volume to the microtiter plate wells.
Pre-cultures of bacteria were grown in appropriate liquid media (refer to ATCC webpage, www.atcc.org) and afterwards were inoculated in corresponding liquid medium. 100 μl of the inoculums [adjusted to an amount of app. 1×10^6 microorganisms per ml (range of 10^5-10^8 microorganisms per ml)] were added to each of the testing compound concentrations and cultivated under the appropriate conditions.
Before and after incubation, bacterial growth was determined by photometric analysis against a positive control containing growing bacteria without compound and a sterile/negative control containing only the medium.

Structure (SMILES)	PC3 % INH [31.6 μM] [10] [%]	RKOp21 % INH [31.6 μM] [11] [%]	Mean % INH [12] [%]	SKOV-3 % INH [100 μM] [14] [%]	inhibition at 31.6 µM ([10]; Homo sapiens, PC-3) [%]	inhibition at 31.6 µM ([11]; Homo sapiens) [%]	inhibition at 100 µM [14] [%]	further results
CCCCCCCCCCCCCCCCOCCCOP(=O)([O-])OCC[N+](C)(C)C [Compound 8, Phosphoric acid 3-hexadecyloxy-propyl ester 2-trimethyl-ammonium-ethyl ester]								MIC [1]: 2 µg/mL; MIC [2]: 0.75 µg/mL; MIC [3]: 0.75 µg/mL; MIC [4]: 1.5 µg/mL; MIC (Candida albicans TS3): 1 µg/mL; MIC [5]: 2 µg/mL; MIC [6]: 2 µg/mL; MIC [7]: 0.75 µg/mL; MIC [8]: 2 µg/mL; MIC [9]: 0.75 µg/mL
CCCCCCCCC=CCCCCCCCCOP(=O)(O)OCCN1CCCCC1 [Compound 19]	16.2	53.4	32.2	26.9				IC50 [10]: > 100 µM; IC50 [11]: > 100 µM; IC50 [13]: > 100 µM
CCCCCCCCCCOCCOCCOP(=O)([O-])OCC[N+]1(C)CCCCC1 [Compound 20]	13.4	−12.4	−1.7	−6.1				IC50 [10]: > 100 µM; IC50 [11]: > 100 µM; IC50 [13]: > 100 µM
CCCCCCCCCCCCCCCCCCOP(=O)(O)OCCn1ccnc1 [Compound 67]								MIC [15]: 8 µg/mL (≈ 18 µM); IC50 ([10]; Homo sapiens, PC-3): > 100 µM; IC50 ([11]; Homo sapiens): > 100 µM; IC50 ([13]; Homo sapiens, HeLa): > 100 µM
CCCCCCCCC#CCCCCCCCCOP(=O)([O-])OCC[N+](C)(C)C [Compound 144]			19.7		14	48	-3	IC50 ([10]; Homo sapiens, PC-3): > 100 µM; IC50 ([11]; Homo sapiens): 51.1 µM; IC50 ([13]; Homo sapiens, HeLa): > 100 µM
CCCCCCCCCCCCCCCCOP(=O)([O-])OCC[N+]1(C)CCCC(C(=O)OCC)C1 (stereo not drawn) [Compound 260]			47.3		45.2	40.5	56.1	MIC [15]: 8 µg/mL (≈ 15.4 µM)
CCCCCCCCCCCCCCCCOP(=O)([O-])OCCCC[N+](C)(C)C [Compound 314]	51.6	10.6	31.8	33.2				
CCCCCCCCCCCCCCCCCCOP(=O)([O-])OC1CC[N+](C)(C)CC1 [perifosine, octadecyl-1,1-dimethyl-piperidino-4-yl-phosphate, reference compound]			78.0		80.2	63	90.7	
